Reference: PubChem BioAssay (NCI)
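Protocol summary: plate cells (96-well), add compound at 5 concentrations, incubate 48 h, interpolate endpoints linearly. TGI marks complete inhibition of growth.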

What was measured:
Test in all cases: growth of human tumour cells (NCI), 48 h
HS 578T breast = test system: HS 578T breast
IGROV1 ovarian = test system: IGROV1 ovarian
NCI-H226 lung = test system: NCI-H226 lung
COLO 205 colon = test system: COLO 205 colon
OVCAR-3 ovarian = test system: OVCAR-3 ovarian
MCF7 breast = test system: MCF7 breast
SF-295 CNS = test system: SF-295 CNS
NCI/ADR-RES ovarian = test system: NCI/ADR-RES ovarian
RPMI-8226 leukemia = test system: RPMI-8226 leukemia
HT29 colon = test system: HT29 colon
MDA-MB-231 breast = test system: MDA-MB-231 breast
MALME-3M melanoma = test system: MALME-3M melanoma
SN12C renal = test system: SN12C renal
RXF 393 renal = test system: RXF 393 renal
KM12 colon = test system: KM12 colon
786-0 renal = test system: 786-0 renal
OVCAR-4 ovarian = test system: OVCAR-4 ovarian
SK-MEL-28 melanoma = test system: SK-MEL-28 melanoma
OVCAR-5 ovarian = test system: OVCAR-5 ovarian
NCI-H522 lung = test system: NCI-H522 lung
A549 NSCLC = test system: A549 NSCLC
SR leukemia = test system: SR leukemia
LOX IMVI melanoma = test system: LOX IMVI melanoma
K-562 leukemia = test system: K-562 leukemia
MDA-MB-435 = test system: MDA-MB-435
CAKI-1 renal = test system: CAKI-1 renal
NCI-H23 lung = test system: NCI-H23 lung
UACC-257 melanoma = test system: UACC-257 melanoma
MOLT-4 leukemia = test system: MOLT-4 leukemia
SK-OV-3 ovarian = test system: SK-OV-3 ovarian
HCT-116 colon = test system: HCT-116 colon
CCRF-CEM leukemia = test system: CCRF-CEM leukemia
SF-268 CNS = test system: SF-268 CNS
M14 melanoma = test system: M14 melanoma
EKVX NSCLC = test system: EKVX NSCLC
HCC-2998 colon = test system: HCC-2998 colon
UO-31 renal = test system: UO-31 renal
SK-MEL-2 melanoma = test system: SK-MEL-2 melanoma
BT-549 breast = test system: BT-549 breast
SF-539 CNS = test system: SF-539 CNS
SW-620 colon = test system: SW-620 colon
T-47D breast = test system: T-47D breast
ACHN renal = test system: ACHN renal
HL-60(TB) leukemia = test system: HL-60(TB) leukemia
SK-MEL-5 melanoma = test system: SK-MEL-5 melanoma
A498 renal = test system: A498 renal
U251 CNS = test system: U251 CNS
PC-3 prostate = test system: PC-3 prostate
NCI-H460 lung = test system: NCI-H460 lung
HCT-15 colon = test system: HCT-15 colon
UACC-62 melanoma = test system: UACC-62 melanoma
HOP-62 NSCLC = test system: HOP-62 NSCLC
MDA-N = test system: MDA-N
TK-10 renal = test system: TK-10 renal
DU-145 prostate = test system: DU-145 prostate
HOP-92 NSCLC = test system: HOP-92 NSCLC
SNB-19 CNS = test system: SNB-19 CNS
OVCAR-8 ovarian = test system: OVCAR-8 ovarian
SNB-75 CNS = test system: SNB-75 CNS

Measured: TGI

O=C(O)c1nc2ccc(Cl)cc2[nH]c1=O
not listed: SNB-75 CNS
> 100 µM: all other assays above

CC(=O)N1c2ccccc2C2=NN(C)C(=N)SC21 (stereo not given)
not listed: IGROV1 ovarian | RXF 393 renal | CAKI-1 renal | SK-OV-3 ovarian | SK-MEL-5 melanoma | UACC-62 melanoma | HOP-92 NSCLC
> 100 µM: all other assays above
